Reference: US20230270692A1, “COMPOUNDS FOR CHRONIC DISORDERS” (Pillai Universal LLC, priority 2020, published 2023)

What was measured:
[1] = Pharmacokinetics and tissue distribution in nude mouse; assay type: in vivo
Experimental: The pharmacokinetics and toxicity of Compound I was studied in vivo in a nude mouse model.
Tissue-to-plasma ratios were taken of Compound I in animals at 1, 2, 4, 24 h after administration. At 60 min, the highest levels of Compound I were found in the lungs, brain, stomach, liver, mammary gland, and small intestine, all of which are highly perfused organs followed by spleen and heart. Up to 72 h, Compound I was detected in most organs, but not in the femur and kidney. The ratios in most organs continued to increase up to 4 h. […] There was no change in body weight monitored for a 7-day period after drug administrations.
As explained above, a pharmacokinetic study investigated the concentrations of Compound I at different time intervals after either oral administration or intravenous injection. […] In the gastrointestinal tract, a significant amount of Compound I accumulated in the stomach, implying that Compound I may be absorbed through stomach tissue and distributed throughout the body. […] Collectively, our current findings will provide a more complete understanding of the biological actions of Compound I in vivo.

[2] = Reduction of hydroxychloroquine side effects; settings: treatment of COVID-19
Source text: Coronavirus disease (COVID-19) is an infectious disease caused by virus SARS-CoV-2. The disease causes respiratory illness with symptoms such as a cough, fever, and in more severe cases, difficulty breathing. At present, one drug that may be effective in treating COVID-19 is hydroxychloroquine. However the drug hydroxychloroquine causes serious side effects including cardiovascular diseases, eye damage, mild or severe bronchospasm, and also affects mental health. The effect of Compound I of the present invention in reducing the side effects associated with hydroxychloroquine was studied according to methods known in the art.

[3] = tested on: Class I HDAC (HDAC1, HDAC2, HDAC3, HDAC8); assay: Class I HDAC expression/inhibition by western blotting in PANC cells; assay type: cell-based, Human
Experimental: Class I HDAC expression during pancreatic tumorigenesis was next examined. Briefly different concentration of Compound I were added and incubated for 24 h. […] Inhibition of Class I HDACs is associated with the upregulation of histone H3 acetylation and p21 mRNA and protein expression which have associated with the anti-proliferative activity. It has also been reported that HDAC6 functions as a α-tubulin deacetylase, modulating tubulin stability. Because α-tubulin and histone H3 are mutual downstream targets of HDACs, the relationship between protein expression and function of molecules was further examined. The effects of Compound I on histone H3 acetylation in PANC cells using western blot analysis was studied.

[4] = 28-day oral sub-chronic toxicity (OECD 408); assay type: in vivo
Experimental: […] […] Rats in control groups were administrated orally with the same volume of distilled water (vehicle). During the experimental period, the body weights of all groups were measured once a week. Animals were also visually observed for mortality, changes in behavioral patterns, changes in physical appearance, and symptoms of illness. […] Blood samples were collected for the measurement of hematological (EDTA-2K coated tubes) and biochemical (dry tubes) parameters. After euthanasia, the rats were sacrificed and organs were removed for necropsy, organ weight measurement, and histopathological examination.
Urinalysis: On the last week of the treatment period, a urine test was conducted in all rat groups. Fresh urine was collected overnight from all animals, to determine specific gravity, pH, levels of leukocytes, nitrites, protein, glucose, ketones, blood, urobilinogen, and bilirubin. Urine samples were analyzed using an automatic urine analyzer and test strips.
Hematology and serum biochemistry: For the hematological investigation, all animals fasted overnight but were allowed access to water ad libitum. The rats were then anesthetized, and blood samples were collected from the abdominal aorta. Whole blood was collected in EDTA tubes (containing potassium salt of ethylenediamine-tetracetic acid) and processed immediately for hematological analysis. The parameters measured were red blood cell count (RBC), hematocrit (HCT), hemoglobin (HGB), mean corpuscular volume (MCV), mean corpuscular hemoglobin concentration (MCHC), mean corpuscular hemoglobin (MCH), white blood cell count (WBC), neutrophils (NEU), eosinophils (EOS), basophils (BASO), lymphocytes (LYM), and monocytes (MONO). The hematological analysis was performed using an automatic hematological analyzer. For the measurement of biochemical parameters, dry tubes containing collected blood were centrifuged at 3000 rpm at 5° C. for 15 min to obtain the serum. Serum samples were analyzed using an automated biochemistry analyzer. The clinical biochemistry parameters included, total serum protein (TP), albumin (ALB), total bilirubin (T-BIL), alkaline phosphatase (ALP), alanine aminotransferase (ALT), aspartate aminotransferase (AST), uric acid (URIC), urea (UREA), creatinine (CREA), low-density lipoprotein-cholesterol (LDL-C), high-density lipoprotein-cholesterol (HDL-C), total cholesterol (TC), triglycerides (TG), and glucose (GLU). Serum electrolytes such as calcium (Ca2+), sodium (Nat), potassium (K^+), and chloride (CF) were also determined.
Necropsy and organ weight: All groups of rats were subjected to gross necropsy, which included the examination of the thoracic organs, external surface, and all of the internal organs. Vital organs were carefully examined macroscopically for any type of abnormalities. Thereafter, various organs, including the heart, liver, kidneys, stomach, lung, spleen, adrenals, thymus, epididymis, testes, uterus, and ovaries were surgically removed, cleaned with ice-cold saline solution, placed on absorbent papers, and then weighed (absolute organ weight in grams). The relative organ weight (ROW) of each animal was then calculated as follows: ROW=[Absolute organ weight (g)÷Bodyweight of rat on sacrifice day (g)]×100.
Histopathology: The major organs (lung, heart, liver, kidney) and reproductive organs (testis and ovary) were removed for histopathological examinations. After weight measurement, the organs were quickly fixed in 10% buffered formalin (pH 7.4). Following fixation, tissue specimens were dehydrated in a graded series of ethanol (70-100%), cleared in toluene, and finally enclosed in paraffin. Thereafter, 5-μm thin sections were prepared using a microtome (Leica) and stained with Haematoxylin and Eosin (H & E) prior to microscopic examination.

SARS-CoV-2 = assay: Inactivation of SARS-CoV-2 upon direct exposure; settings: Severe acute respiratory syndrome coronavirus 2, read-out: 50% reduction (IC50), inactivation of SARS-CoV-2
[5] = treatment group compared to control group

In the case of `COc1cc(/C=C/C(=O)/C=C/C=C/c2cc(OC)c(O)c(OC)c2)cc(OC)c1` [Compound I], the Toxicity ([1]; 10 mg/kg IV) is reported as “No toxicity was observed”, the “tissue-to plasma ratio in the hippocampus and brain” value ([1]; 1, 2, and 24 h after dosing) is reported as “increased significantly and continuously” and the body weight ([1]; 7-day period after administration) is reported as “no change”. For the same molecule, the tissue distribution ([1]; intravenous administration) was “widely distributed in several tissues”, the “absorbed or distributed to the vital organs” value ([1]; mouse, in vivo) was “approximately 98%” and the “excreted in either urine or feces” value ([1]; mouse, in vivo) was “less than 2%”. For the same molecule, the “time Compound I was detected in most organs” value ([1]; not in the femur and kidney) was “Up to 72 h”, the “signs of discomfort, cardiovascular or respiratory disorders” value ([1]; throughout the study period) was “No signs of discomfort or any cardiovascular or respiratory disorders were observed” and the “increase in the area under the curve (AUC)” value [1, 5] was 28 fold. For the same molecule, the “increase in the maximum plasma concentration (Cmax)” value [1, 5] was 29 fold, the “effect on hydroxychloroquine side effects” value [2] was “assists in potentiating hydroxychloroquine by reducing the side effects” and the “protein expression of Class I HDAC” value ([3]; 24 h, western blotting, vs control p<0.05) was “decreased in a dose-dependent manner”. The “inhibition of HDAC1, HDAC2, HDAC3 and HDAC8” value ([3]; PANC cells) was “significantly inhibited”, the “plasma levels of AST, ALT, ALP activities” value ([4]; 200, 500, 1000 and 2000 mg/kg, both sexes) was “insignificant changes” and the “food and water intakes” value ([4]; 28 d, P>0.05 vs control) was “no significant changes”. The body weight ([4]; acute and subacute toxicity groups) was “did not elicit any deleterious effect on body weight”, the “level of creatinine, electrolytes, urea or uric acid” value ([4]; all doses, both sexes) was “no significant difference” and the “WBC count and subtypes” value ([4]; any of the doses) was “did not cause any significant changes”. For the same molecule, the “hematological parameters (WBC, RBC, PCV, hemoglobin)” value ([4]; compared to the control group) was “not significantly altered”, the “histopathology: liver” value ([4]; female rats) was “almost normal cellular architecture with normal hepataocytes” and the “Relative organ weight (ROW)” value ([4]; liver, brain, kidney, heart, spleen) was “did not elicit any adverse effects to the vital organs”. For the same molecule, the “histopathology: heart” value ([4]; male and female rats) was “appeared normal”, the “histopathology: kidney” value ([4]; male and female rats) was “almost normal size and shape of glomeruli, tubules, intestinum and blood vesicles” and the “histopathology: lungs” value ([4]; male and female rats) was “no lymphocytic infiltrations were observed”. The “histopathology: pancreas” value ([4]; male and female rats) was “almost no abnormalities were observed”, the “histopathology: stomach” value ([4]; male and female rats) was “normal cellular architecture” and the “histopathology: liver” value ([4]; male rats) was “normal hepatocytes along with normal portal triads, sinusoidal spaces and central venous system”. For the same molecule, the “histopathology: reproductive organs (testis, ovary)” value ([4]; rat, in vivo) was “normal pathology”, the “levels of total protein, albumin, conjugated bilirubin and bilirubin” value ([4]; rat, in vivo) was “no significant difference” and the treatment related death ([4]; subacute, 28-day, both sexes) was “no treatment related death was observed”. It also gave an IC50 (SARS-CoV-2) of 1 µM.
